{"source": "ChEMBL document CHEMBL4376889", "about": "“Discovery of a Brain-Penetrant ATP-Competitive Inhibitor of the Mechanistic Target of Rapamycin (mTOR) for CNS Disorders” (J Med Chem, 2020)", "key": {"[1]": {"biological_target": "Serine-protein kinase ATM (Homo sapiens, UniProt Q13315)", "experiment": "Inhibition of ATM (unknown origin) assessed as reduction in CHK2 phosphorylation by cell based assay"}, "[2]": {"experiment": "Drug uptake in C57BL/6J mouse plasma at 10 mg/kg, po incubated for 3 hrs by LC-MS/MS analysis", "format": "ADME, organism-based"}, "[3]": {"experiment": "Protein binding in Sprague-Dawley rat plasma at 5 uM incubated for 4 hrs by LC-MS/MS analysis", "format": "ADME, cell-free", "conditions": "read-out: PPB (converted)"}, "[4]": {"biological_target": "Serine/threonine-protein kinase mTOR (Mus musculus, UniProt Q9JLN9)", "experiment": "Inhibition of mTOR in mouse MEF cells harboring TSC1 deletion mutant assessed as reduction in PS6 phosphorylation incuabted for 2 hrs alexa fluor 594 and Hoechst staining based fluorescence assay", "format": "cell-based"}, "Mus musculus [5]": {"system": "Mus musculus", "experiment": "In vivo inhibition of mTOR pathway in C57BL/6J mouse assessed as reduction in mTORC1/mTORC2 complex by measuring AKT phosphorylation level at 1 to 10 mg/kg, po measured after 8 hrs by Western blot analysis", "format": "functional, organism-based"}, "[6]": {"biological_target": "3',5'-cyclic-AMP phosphodiesterase 4D (Homo sapiens, UniProt Q08499)", "experiment": "Inhibition of PDE4D (unknown origin)"}, "[7]": {"experiment": "Selectivity index, ratio of IC50 for PDE4D (unknown origin) to IC50 for inhibition of mTOR in mouse MEF cells harboring TSC1 deletion mutant", "format": "cell-based"}, "Mus musculus [8]": {"system": "Mus musculus", "experiment": "In vivo inhibition of mTOR pathway in C57BL/6J mouse assessed as reduction in mTORC1/mTORC2 complex by measuring PS6 phosphorylation level at 1 to 10 mg/kg, po measured after 8 hrs by Western blot analysis", "format": "functional, organism-based"}, "[9]": {"experiment": "Cmax in C57BL/6 mouse at 1 mg/kg, iv or 5 mg/kg, po by HPLC analysis", "format": "ADME, organism-based", "conditions": "in vivo"}, "[10]": {"experiment": "Ratio of drug concentration in brain to plasma in Sprague-Dawley rat at 3 mg/kg, po incubated for 24 hrs by LC-MS/MS analysis", "format": "ADME, organism-based", "conditions": "read-out: BPR"}, "[11]": {"experiment": "Half life in Sprague-Dawley rat at 1 mg/kg, iv or 3 mg/kg, po by HPLC analysis", "format": "ADME, organism-based", "conditions": "in vivo"}, "[12]": {"experiment": "Selectivity index, ratio of IC50 for ATM (unknown origin) to IC50 for inhibition of mTOR in mouse MEF cells harboring TSC1 deletion mutant", "format": "cell-based"}, "[13]": {"experiment": "Selectivity index, ratio of IC50 for DNAPK (unknown origin) to IC50 for inhibition of mTOR in mouse MEF cells harboring TSC1 deletion mutant", "format": "cell-based"}, "[14]": {"biological_target": "Myosin light chain kinase, smooth muscle (Homo sapiens) (UniProt Q15746)", "sequence (Q15746 whole entry, the tested form may be a part)": "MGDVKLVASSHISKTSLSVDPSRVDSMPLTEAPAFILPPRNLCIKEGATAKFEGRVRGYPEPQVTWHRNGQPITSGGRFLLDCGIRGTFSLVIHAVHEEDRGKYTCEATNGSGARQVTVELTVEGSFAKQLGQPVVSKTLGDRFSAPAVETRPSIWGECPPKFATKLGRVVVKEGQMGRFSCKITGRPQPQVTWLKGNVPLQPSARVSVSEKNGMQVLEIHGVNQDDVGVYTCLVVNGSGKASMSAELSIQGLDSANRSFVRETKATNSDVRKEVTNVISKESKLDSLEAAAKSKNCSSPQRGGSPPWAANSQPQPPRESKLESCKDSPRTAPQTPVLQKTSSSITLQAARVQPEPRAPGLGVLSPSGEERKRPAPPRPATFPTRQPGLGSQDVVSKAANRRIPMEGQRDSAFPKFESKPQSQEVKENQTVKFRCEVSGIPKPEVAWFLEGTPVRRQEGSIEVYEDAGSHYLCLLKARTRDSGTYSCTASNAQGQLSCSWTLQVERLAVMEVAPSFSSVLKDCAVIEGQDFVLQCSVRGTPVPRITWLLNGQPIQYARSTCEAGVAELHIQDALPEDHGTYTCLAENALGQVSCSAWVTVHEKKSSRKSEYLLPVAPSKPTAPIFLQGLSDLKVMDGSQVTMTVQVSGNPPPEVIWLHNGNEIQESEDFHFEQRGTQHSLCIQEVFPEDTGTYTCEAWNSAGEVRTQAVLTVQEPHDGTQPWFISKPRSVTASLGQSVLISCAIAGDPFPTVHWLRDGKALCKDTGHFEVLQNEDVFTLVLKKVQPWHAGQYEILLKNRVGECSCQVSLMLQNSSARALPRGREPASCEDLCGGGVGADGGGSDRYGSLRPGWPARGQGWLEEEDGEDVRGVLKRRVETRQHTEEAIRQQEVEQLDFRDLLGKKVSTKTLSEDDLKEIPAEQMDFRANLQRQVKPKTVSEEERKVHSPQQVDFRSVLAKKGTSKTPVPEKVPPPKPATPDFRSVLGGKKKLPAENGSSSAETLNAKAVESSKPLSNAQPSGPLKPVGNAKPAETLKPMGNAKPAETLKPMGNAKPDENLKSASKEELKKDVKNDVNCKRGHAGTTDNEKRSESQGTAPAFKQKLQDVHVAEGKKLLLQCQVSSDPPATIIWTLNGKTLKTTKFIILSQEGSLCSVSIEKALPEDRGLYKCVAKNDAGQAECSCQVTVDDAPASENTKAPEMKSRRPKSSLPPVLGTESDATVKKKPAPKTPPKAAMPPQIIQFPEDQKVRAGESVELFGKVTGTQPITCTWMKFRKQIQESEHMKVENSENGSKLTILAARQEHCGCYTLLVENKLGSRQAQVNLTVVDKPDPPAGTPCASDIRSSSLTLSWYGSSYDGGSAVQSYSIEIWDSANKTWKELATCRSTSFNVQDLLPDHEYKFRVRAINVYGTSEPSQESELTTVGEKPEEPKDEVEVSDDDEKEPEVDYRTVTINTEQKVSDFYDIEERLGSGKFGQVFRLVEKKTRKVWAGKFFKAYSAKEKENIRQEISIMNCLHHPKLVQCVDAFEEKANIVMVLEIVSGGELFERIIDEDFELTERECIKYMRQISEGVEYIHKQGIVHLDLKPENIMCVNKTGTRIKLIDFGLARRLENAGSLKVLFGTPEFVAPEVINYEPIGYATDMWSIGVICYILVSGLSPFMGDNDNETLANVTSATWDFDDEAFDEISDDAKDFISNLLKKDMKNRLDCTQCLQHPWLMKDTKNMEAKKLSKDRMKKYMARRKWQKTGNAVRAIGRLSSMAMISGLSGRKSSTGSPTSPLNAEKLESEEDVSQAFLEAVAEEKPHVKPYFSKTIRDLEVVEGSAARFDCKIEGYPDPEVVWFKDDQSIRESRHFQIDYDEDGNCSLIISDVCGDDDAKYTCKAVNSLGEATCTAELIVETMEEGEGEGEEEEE", "experiment": "Inhibition of wild-type human […] MYLK (M854 to E1845 residues) expressed in mammalian expression system at 10000 nM by Kinomescan method"}, "[15]": {"experiment": "MRT (0 to t) in Sprague-Dawley rat at 1 mg/kg, iv or 3 mg/kg, po by HPLC analysis", "format": "ADME, organism-based", "conditions": "in vivo"}, "[16]": {"experiment": "Oral bioavailability in C57BL/6 mouse at 5 mg/kg by HPLC analysis", "format": "ADME, organism-based", "conditions": "in vivo"}, "[17]": {"experiment": "Clearance in Sprague-Dawley rat at 1 mg/kg, iv or 3 mg/kg, po by HPLC analysis", "format": "ADME, organism-based", "conditions": "in vivo"}, "[18]": {"experiment": "Ratio of drug concentration in brain to plasma in C57BL/6 mouse at 1 mg/kg, iv incubated for 7 hrs by LC-MS/MS analysis", "format": "ADME, organism-based", "conditions": "read-out: BPR"}, "[19]": {"experiment": "Ratio of drug concentration in brain to plasma in C57BL/6J mouse at 3 mg/kg, po incubated for 3 hrs by LC-MS/MS analysis", "format": "ADME, organism-based", "conditions": "read-out: BPR"}, "MDR1": {"system": "MDR1", "experiment": "Efflux ratio of permeability from basolateral to apical over apical to basolateral side in MDCK-MDR1 cells", "format": "ADME, cell-based, Canis lupus familiaris", "conditions": "dog"}, "[20]": {"experiment": "AUC (0 to t) in Sprague-Dawley rat at 1 mg/kg, iv by HPLC analysis", "format": "ADME, organism-based", "conditions": "in vivo"}, "[21]": {"biological_target": "Phosphatidylinositol 4,5-bisphosphate 3-kinase catalytic subunit beta isoform (Homo sapiens, UniProt P42338)", "experiment": "Inhibition of PI3Kbeta (unknown origin)"}, "Mus musculus [22]": {"system": "Mus musculus", "experiment": "In vivo inhibition of PI3KCA in C57BL/6J mouse assessed as reduction in AKT phosphorylation Thr308 at 1 to 10 mg/kg, po measured after 24 hrs by Western blot analysis", "format": "functional, organism-based"}, "[23]": {"experiment": "Tmax in Sprague-Dawley rat at 1 mg/kg, iv or 3 mg/kg, po by HPLC analysis", "format": "ADME, organism-based", "conditions": "in vivo"}, "[24]": {"experiment": "Protein binding in C57BL/6 mouse plasma at 5 uM incubated for 4 hrs by LC-MS/MS analysis", "format": "ADME, cell-free", "conditions": "read-out: PPB"}, "[25]": {"biological_target": "Phosphatidylinositol 4,5-bisphosphate 3-kinase catalytic subunit delta isoform (Homo sapiens, UniProt O00329)", "experiment": "Inhibition of PI3Kdelta (unknown origin)"}, "[26]": {"experiment": "Protein binding in Sprague-Dawley rat brain homogenate at 5 uM incubated for 4 hrs by LC-MS/MS analysis", "format": "ADME, tissue-based", "conditions": "read-out: PB (converted)"}, "[27]": {"biological_target": "Serine/threonine-protein kinase mTOR (Rattus norvegicus, UniProt P42346, L2427P)", "sequence (P42346 whole entry L2427P, looked up)": "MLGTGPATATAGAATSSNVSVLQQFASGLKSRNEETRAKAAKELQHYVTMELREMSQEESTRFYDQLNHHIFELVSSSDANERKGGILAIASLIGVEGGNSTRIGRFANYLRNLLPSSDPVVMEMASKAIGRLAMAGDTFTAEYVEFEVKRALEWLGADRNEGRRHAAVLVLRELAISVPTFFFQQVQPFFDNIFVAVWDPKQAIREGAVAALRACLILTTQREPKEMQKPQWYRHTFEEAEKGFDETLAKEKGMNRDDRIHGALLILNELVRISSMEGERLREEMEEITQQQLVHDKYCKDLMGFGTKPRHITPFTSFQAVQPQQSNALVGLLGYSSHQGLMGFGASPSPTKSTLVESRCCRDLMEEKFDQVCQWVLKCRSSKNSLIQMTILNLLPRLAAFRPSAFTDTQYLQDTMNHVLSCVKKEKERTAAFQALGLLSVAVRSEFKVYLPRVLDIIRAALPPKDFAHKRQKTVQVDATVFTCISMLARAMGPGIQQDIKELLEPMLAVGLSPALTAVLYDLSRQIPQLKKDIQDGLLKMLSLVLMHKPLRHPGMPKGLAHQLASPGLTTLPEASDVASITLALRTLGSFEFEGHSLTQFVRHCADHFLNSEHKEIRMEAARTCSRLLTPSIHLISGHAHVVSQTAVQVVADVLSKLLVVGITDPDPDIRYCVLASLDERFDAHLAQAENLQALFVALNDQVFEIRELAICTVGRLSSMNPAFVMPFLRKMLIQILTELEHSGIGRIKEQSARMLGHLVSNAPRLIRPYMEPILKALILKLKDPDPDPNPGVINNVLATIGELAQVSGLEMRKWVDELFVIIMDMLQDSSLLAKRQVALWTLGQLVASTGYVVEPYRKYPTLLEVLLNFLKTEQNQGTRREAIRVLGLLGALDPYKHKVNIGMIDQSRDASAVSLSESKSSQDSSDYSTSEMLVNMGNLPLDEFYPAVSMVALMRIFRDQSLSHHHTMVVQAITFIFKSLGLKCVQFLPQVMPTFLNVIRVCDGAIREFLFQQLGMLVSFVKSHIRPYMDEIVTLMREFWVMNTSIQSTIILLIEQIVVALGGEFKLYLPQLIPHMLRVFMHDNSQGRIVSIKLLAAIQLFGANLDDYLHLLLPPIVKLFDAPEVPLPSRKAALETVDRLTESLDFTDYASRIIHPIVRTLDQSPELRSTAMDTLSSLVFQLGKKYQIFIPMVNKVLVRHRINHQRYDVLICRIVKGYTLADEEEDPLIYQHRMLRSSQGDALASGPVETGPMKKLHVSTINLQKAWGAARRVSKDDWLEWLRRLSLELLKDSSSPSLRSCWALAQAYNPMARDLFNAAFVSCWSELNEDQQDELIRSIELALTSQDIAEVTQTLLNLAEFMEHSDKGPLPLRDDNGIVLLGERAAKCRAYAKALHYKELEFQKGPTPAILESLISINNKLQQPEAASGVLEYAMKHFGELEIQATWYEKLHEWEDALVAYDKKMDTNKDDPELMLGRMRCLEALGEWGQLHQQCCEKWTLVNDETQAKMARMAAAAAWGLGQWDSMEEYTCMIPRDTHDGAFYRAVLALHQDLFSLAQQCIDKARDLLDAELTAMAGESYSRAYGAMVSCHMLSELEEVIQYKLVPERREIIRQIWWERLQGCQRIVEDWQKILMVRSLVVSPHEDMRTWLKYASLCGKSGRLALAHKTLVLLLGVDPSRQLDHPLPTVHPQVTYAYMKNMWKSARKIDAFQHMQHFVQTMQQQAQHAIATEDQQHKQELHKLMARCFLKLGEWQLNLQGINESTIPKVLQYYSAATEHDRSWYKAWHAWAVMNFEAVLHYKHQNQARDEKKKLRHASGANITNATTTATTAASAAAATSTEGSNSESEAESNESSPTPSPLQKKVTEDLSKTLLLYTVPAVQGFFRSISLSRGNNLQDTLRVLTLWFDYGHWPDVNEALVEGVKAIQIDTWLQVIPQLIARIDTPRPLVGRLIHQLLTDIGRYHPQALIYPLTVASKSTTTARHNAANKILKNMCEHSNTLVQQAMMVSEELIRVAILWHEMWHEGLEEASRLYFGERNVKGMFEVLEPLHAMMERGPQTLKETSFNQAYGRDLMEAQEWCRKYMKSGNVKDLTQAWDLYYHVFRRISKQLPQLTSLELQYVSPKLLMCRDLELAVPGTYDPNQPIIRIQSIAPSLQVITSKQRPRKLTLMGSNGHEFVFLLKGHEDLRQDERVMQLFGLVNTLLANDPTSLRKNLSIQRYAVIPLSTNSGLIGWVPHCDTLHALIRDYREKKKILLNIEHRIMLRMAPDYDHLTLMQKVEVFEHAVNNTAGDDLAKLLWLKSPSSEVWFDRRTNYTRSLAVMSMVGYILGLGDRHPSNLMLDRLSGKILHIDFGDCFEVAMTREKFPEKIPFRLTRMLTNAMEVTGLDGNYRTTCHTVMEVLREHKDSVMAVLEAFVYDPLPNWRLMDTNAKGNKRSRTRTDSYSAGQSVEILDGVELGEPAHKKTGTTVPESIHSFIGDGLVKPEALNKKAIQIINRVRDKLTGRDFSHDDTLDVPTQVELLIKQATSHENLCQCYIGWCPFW", "experiment": "Inhibition of mTOR L2427P mutant in rat primary cortical neuron assessed as reduction in PS6 phosphorylation incubated for 4 hrs by Western blot analysis (reference value: 19 nM)"}, "Mus musculus [28]": {"system": "Mus musculus", "experiment": "In vivo inhibition of mTOR pathway in C57BL/6J mouse assessed as reduction in mTORC1/mTORC2 complex by measuring PS6 phosphorylation level at 1 to 10 mg/kg, po measured after 24 hrs by Western blot analysis", "format": "functional, organism-based"}, "[29]": {"experiment": "Clearance in C57BL/6 mouse at 1 mg/kg, iv or 5 mg/kg, po by HPLC analysis", "format": "ADME, organism-based", "conditions": "in vivo"}, "[30]": {"biological_target": "Serine/threonine-protein kinase mTOR (Rattus norvegicus, UniProt P42346, L1460P)", "sequence (P42346 whole entry L1460P, looked up)": "as the sequence (P42346 whole entry L2427P, looked up) above, with L1460P, P2427L counted along it", "experiment": "Inhibition of mTOR L1460P mutant in rat primary cortical neuron assessed as reduction in PS6 phosphorylation incubated for 4 hrs by Western blot analysis (reference value: 19 nM)"}, "Cytochrome P450 2C9": {"biological_target": "Cytochrome P450 2C9 (Homo sapiens, UniProt P11712)", "sequence (P11712 whole entry)": "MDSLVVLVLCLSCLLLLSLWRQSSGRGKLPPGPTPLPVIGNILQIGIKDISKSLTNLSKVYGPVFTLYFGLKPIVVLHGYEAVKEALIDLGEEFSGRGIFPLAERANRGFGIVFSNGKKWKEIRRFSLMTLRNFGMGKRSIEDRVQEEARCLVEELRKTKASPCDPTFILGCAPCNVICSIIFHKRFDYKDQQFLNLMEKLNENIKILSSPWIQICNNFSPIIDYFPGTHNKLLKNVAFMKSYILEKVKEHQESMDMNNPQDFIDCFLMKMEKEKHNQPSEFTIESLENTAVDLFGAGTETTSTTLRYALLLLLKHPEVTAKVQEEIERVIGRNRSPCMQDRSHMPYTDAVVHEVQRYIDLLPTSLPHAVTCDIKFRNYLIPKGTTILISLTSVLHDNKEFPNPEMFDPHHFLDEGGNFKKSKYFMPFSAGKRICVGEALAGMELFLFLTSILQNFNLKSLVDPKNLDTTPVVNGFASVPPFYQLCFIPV", "experiment": "Inhibition of CYP2C9 (unknown origin)", "format": "ADME"}, "[31]": {"experiment": "AUC (0 to t) in Sprague-Dawley rat at 3 mg/kg, po by HPLC analysis", "format": "ADME, organism-based", "conditions": "in vivo"}, "Cytochrome P450 2D6": {"biological_target": "Cytochrome P450 2D6 (Homo sapiens, UniProt P10635)", "experiment": "Inhibition of CYP2D6 (unknown origin)", "format": "ADME"}, "[32]": {"experiment": "Ratio of drug concentration in brain to plasma in C57BL/6J mouse at 1 mg/kg, po incubated for 3 hrs by LC-MS/MS analysis", "format": "ADME, organism-based", "conditions": "read-out: BPR"}, "[33]": {"experiment": "MRT (0 to t) in C57BL/6 mouse at 1 mg/kg, iv or 5 mg/kg, po by HPLC analysis", "format": "ADME, organism-based", "conditions": "in vivo"}}, "note": "The source made the active and inactive calls. No cut-off for these calls is given here.", "data": [{"smiles": "C[C@@H]1COCCN1c1nc(N2CCOC[C@@H]2C)nc2sc(-c3cc[nH]n3)nc12", "values": [{"measurement": "IC50", "setting": "[1]", "result": 20, "unit": "nM"}, {"measurement": "concentration at 3 h", "setting": "[2]", "result": 4.47, "unit": "µM"}, {"measurement": "fraction unbound at 4 h, 5 µM", "setting": "[3]", "result": 0.012}, {"measurement": "IC50", "setting": "[4]", "result": 5.6, "unit": "nM"}, {"measurement": "inhibition", "setting": "Mus musculus [5]", "result": "Active"}, {"measurement": "IC50", "setting": "[6]", "result": 210, "unit": "nM"}, {"measurement": "Ratio IC50", "setting": "[7]", "result": 38}, {"measurement": "inhibition", "setting": "Mus musculus [8]", "result": "Active"}, {"measurement": "Cmax", "setting": "[9]", "result": 2.69, "unit": "µM"}, {"measurement": "Kp at 24 h", "setting": "[10]", "result": 3.1}, {"measurement": "half-life", "setting": "[11]", "result": 3.7, "unit": "h"}, {"measurement": "Ratio IC50", "setting": "[12]", "result": 3570}, {"measurement": "Ratio IC50", "setting": "[13]", "result": 230}, {"measurement": "inhibition", "setting": "[14]", "result": "Active"}, {"measurement": "MRT last", "setting": "[15]", "result": 4.3, "unit": "h"}, {"measurement": "bioavailability", "setting": "[16]", "result": 61, "unit": "%"}, {"measurement": "clearance", "setting": "[17]", "result": 9.5, "unit": "mL/min/kg"}, {"measurement": "Kp at 7 h", "setting": "[18]", "result": 1.2}, {"measurement": "Kp at 3 h", "setting": "[19]", "result": 1.1}, {"measurement": "efflux ratio", "setting": "MDR1", "result": 0.93}, {"measurement": "AUC(0-t)", "setting": "[20]", "result": 4.34, "unit": "µM·h"}, {"measurement": "IC50", "setting": "[21]", "result": "> 10000", "unit": "nM"}, {"measurement": "inhibition", "setting": "Mus musculus [22]", "result": "inactive"}, {"measurement": "Tmax", "setting": "[23]", "result": 1.5, "unit": "h"}, {"measurement": "fraction unbound at 4 h, 5 µM", "setting": "[24]", "result": "< 0.01"}, {"measurement": "IC50", "setting": "[25]", "result": 1700, "unit": "nM"}, {"measurement": "fraction unbound at 4 h, 5 µM", "setting": "[26]", "result": 0.004}, {"measurement": "IC50", "setting": "[27]", "result": 24, "unit": "nM"}, {"measurement": "inhibition", "setting": "Mus musculus [28]", "result": "inactive"}, {"measurement": "clearance", "setting": "[29]", "result": 6.5, "unit": "mL/min/kg"}, {"measurement": "IC50", "setting": "[30]", "result": 11, "unit": "nM"}, {"measurement": "IC50", "setting": "Cytochrome P450 2C9", "result": "> 50000", "unit": "nM"}, {"measurement": "AUC(0-t)", "setting": "[31]", "result": 10.5, "unit": "µM·h"}, {"measurement": "IC50", "setting": "Cytochrome P450 2D6", "result": "> 50000", "unit": "nM"}, {"measurement": "Kp at 3 h", "setting": "[32]", "result": 1.1}, {"measurement": "MRT last", "setting": "[33]", "result": 2.6, "unit": "h"}]}]}
